# From ChEMBL document CHEMBL1128401, “Structure-activity relationships in the 8-amino-6,7,8,9-tetrahydro-3H-benz[e]indole ring system. 1. Effects of substituents in the aromatic system on serotonin and dopamine receptor subtypes” (J Med Chem, 1995)
# Activity calls are given as the source filed them. No cut-off for these calls is given here.
# Columns and labels:
# D(3) dopamine receptor [1] = target: T1, D(3) dopamine receptor (Rattus norvegicus, UniProt P19020); test: Binding affinity against Dopamine receptor D3 from CHO-K1 cells, using [3H]spiperone as the radioligand.; assay type: cell-based; details: read-out: Ki
# T1 sequence (P19020 whole entry): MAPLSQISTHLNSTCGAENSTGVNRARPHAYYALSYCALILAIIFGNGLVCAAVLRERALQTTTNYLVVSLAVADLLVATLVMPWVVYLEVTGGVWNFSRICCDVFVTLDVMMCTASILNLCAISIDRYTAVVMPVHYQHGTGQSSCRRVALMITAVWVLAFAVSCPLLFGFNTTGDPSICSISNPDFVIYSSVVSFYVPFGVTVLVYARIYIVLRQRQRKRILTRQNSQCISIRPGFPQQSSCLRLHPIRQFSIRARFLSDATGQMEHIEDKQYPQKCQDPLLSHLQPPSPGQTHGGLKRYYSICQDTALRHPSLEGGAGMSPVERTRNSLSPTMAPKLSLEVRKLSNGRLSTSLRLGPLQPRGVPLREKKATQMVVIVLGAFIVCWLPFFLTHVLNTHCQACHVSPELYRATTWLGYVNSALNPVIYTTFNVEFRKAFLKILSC
# [2] = target: T2, 5-hydroxytryptamine receptor 1A (Rattus norvegicus, UniProt P19327); test: Binding affinity against 5-hydroxytryptamine 1A receptor from CHO-K1 cells, using [3H]8-OH-DPAT as the radioligand.; assay type: cell-based
# T2 sequence (P19327 whole entry): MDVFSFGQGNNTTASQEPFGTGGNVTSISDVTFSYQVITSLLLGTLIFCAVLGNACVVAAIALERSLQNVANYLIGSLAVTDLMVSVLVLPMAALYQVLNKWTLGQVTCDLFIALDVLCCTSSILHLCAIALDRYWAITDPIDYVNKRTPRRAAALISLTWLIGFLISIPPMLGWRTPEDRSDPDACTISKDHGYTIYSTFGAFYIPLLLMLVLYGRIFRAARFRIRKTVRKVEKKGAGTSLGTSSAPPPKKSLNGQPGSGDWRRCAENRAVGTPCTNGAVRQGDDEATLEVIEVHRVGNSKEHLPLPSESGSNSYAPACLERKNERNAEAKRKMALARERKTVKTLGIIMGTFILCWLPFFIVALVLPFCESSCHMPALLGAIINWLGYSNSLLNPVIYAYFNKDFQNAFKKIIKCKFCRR
# [3] = target: 5-hydroxytryptamine receptor 1B (Homo sapiens, UniProt P28222); test: Binding affinity against 5-hydroxytryptamine 1D receptor beta expressed in CHO-K1 cells, using [3H]5-HT as the radioligand.; assay type: cell-based; details: read-out: Ki
# 5-hydroxytryptamine receptor 1B, sequence (P28222 whole entry): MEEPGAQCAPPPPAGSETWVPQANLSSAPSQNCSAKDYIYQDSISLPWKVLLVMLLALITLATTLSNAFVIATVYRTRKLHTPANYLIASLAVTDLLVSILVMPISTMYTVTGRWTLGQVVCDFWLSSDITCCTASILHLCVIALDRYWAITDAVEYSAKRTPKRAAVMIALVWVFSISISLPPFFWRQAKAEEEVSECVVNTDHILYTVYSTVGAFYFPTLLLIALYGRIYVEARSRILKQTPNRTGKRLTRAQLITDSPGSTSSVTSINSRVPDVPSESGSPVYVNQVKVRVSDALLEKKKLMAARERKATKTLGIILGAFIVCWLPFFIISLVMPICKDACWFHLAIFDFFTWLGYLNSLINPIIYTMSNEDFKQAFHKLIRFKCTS
# Rattus norvegicus [4] = test: The Compound was tested in vivo for DOPA accumulation in hemispheres (cortex) against reserpine-pretreated rats;I= inactive at the highest dose tested (50).; assay type: functional, organism-based
# Rattus norvegicus [5] = test: In vivo for 5-HTP accumulation in corpus striatum against reserpine-pretreated rats.; assay type: functional
# Rattus norvegicus [6] = test: In vivo for 5-HTP accumulation in hemispheres (cortex) against reserpine-pretreated rats.; assay type: functional
# D(2) dopamine receptor [7] = target: T3, D(2) dopamine receptor (Rattus norvegicus, UniProt P61169); test: Binding affinity against Dopamine receptor D2 from CHO-K1 cells, using [3H]U-86,170 as the radioligand.; assay type: cell-based
# T3 sequence (P61169 whole entry): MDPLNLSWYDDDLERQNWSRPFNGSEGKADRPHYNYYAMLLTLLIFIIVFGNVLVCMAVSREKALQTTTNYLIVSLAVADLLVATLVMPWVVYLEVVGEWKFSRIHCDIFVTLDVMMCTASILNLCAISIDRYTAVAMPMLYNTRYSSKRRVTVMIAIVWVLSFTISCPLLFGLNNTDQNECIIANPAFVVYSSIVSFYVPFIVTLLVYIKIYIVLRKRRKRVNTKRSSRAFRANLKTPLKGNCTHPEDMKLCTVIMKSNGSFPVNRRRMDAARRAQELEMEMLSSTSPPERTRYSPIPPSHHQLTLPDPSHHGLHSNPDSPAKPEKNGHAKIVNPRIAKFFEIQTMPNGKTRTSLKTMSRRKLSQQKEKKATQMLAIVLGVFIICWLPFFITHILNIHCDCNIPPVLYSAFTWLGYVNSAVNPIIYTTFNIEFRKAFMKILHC
# Rattus norvegicus [8] = test: In vivo for 5-HTP accumulation in limbic system against reserpine-pretreated rats.; assay type: functional
# Rattus norvegicus [9] = test: Compound was tested in vivo for DOPA accumulation in corpus striatum against reserpine-pretreated rats; assay type: functional
# [10] = target: 5-hydroxytryptamine receptor 1D (Homo sapiens, UniProt P28221); test: Binding affinity against 5-hydroxytryptamine 1D receptor alpha expressed in CHO-K1 cells, using [3H]-5-HT as the radioligand.; assay type: cell-based; details: read-out: Ki
# 5-hydroxytryptamine receptor 1D, sequence (P28221 whole entry): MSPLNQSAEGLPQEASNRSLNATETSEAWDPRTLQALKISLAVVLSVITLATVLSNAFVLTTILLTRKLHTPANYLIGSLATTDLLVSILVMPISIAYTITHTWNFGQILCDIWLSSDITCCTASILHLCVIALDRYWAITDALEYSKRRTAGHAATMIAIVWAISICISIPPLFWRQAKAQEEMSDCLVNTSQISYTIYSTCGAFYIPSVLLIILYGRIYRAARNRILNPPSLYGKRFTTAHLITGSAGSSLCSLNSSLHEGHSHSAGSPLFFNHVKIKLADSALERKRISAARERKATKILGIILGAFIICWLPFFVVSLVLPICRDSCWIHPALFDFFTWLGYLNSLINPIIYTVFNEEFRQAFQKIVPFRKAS
# Rattus norvegicus [11] = test: In vivo for DOPA accumulation in limbic system against reserpine-pretreated rats.; assay type: functional
# D(3) dopamine receptor [12] = target: T1, D(3) dopamine receptor; test: The compound was tested in vitro for binding affinity against cloned mammalian Dopamine receptor D3 expressed in CHO cells by, using [3H]spiperone as radioligand; assay type: cell-based
# Rattus norvegicus [13] = test: compound was tested in vivo for 5-HTP accumulation in hemispheres (cortex) against reserpine-pretreated rats(; assay type: functional
# Rattus norvegicus [14] = test: compound was tested in vivo for DOPA accumulation in corpus striatum against reserpine-pretreated rats; P=significant partial reduction only at the highest dose tested (12.5).; assay type: functional, organism-based
# Rattus norvegicus [15] = test: The compound was tested in vivo for DOPA accumulation in hemispheres (cortex) against reserpine-pretreated rats; I= inactive at the highest dose tested (12.5).; assay type: functional, organism-based
# Rattus norvegicus [16] = test: compound was tested in vivo for 5-HTP accumulation in limbic system against reserpine-pretreated rats,; assay type: functional
# D(2) dopamine receptor [17] = target: T3, D(2) dopamine receptor; test: Binding affinity against Dopamine receptor D2 expressed in CHO-K1 cells, using [3H]U-86170 as the radioligand.; assay type: cell-based
# Rattus norvegicus [18] = test: compound was tested in vivo for 5-HTP accumulation in corpus striatum against reserpine-pretreated rats, activity expressed as ED50; assay type: functional
# Rattus norvegicus [19] = test: compound was tested in vivo for 5-HTP accumulation in hemispheres (cortex) against reserpine-pretreated rats; assay type: functional
# Rattus norvegicus [20] = test: compound was tested in vivo for 5-HTP accumulation in limbic system against reserpine-pretreated rats; assay type: functional
# Rattus norvegicus [21] = test: The compound was tested in vivo for DOPA accumulation in hemispheres (cortex) against reserpine-pretreated rats;I= inactive at the highest dose tested; assay type: functional, organism-based
# Rattus norvegicus [22] = test: compound was tested in vivo for 5-HTP accumulation in limbic system against reserpine-pretreated rats; inactive at the highest dose tested; assay type: functional
# Rattus norvegicus [23] = test: compound was tested in vivo for 5-HTP accumulation in hemispheres (cortex) against reserpine-pretreated rats; inactive at the highest dose tested; assay type: functional
# Rattus norvegicus [24] = test: compound was tested in vivo for 5-HTP accumulation in corpus striatum against reserpine-pretreated rats, activity expressed as ED50; inactive at the highest dose tested; assay type: functional
# D(3) dopamine receptor [25] = target: T1, D(3) dopamine receptor; test: Compound was tested for binding affinity against Dopamine receptor D3 expressed in CHO-K1 cells, using [3H]spiperone as the radioligand.;I = inactive (less than 50% inhibition at 1 uM).; assay type: cell-based
# Rattus norvegicus [26] = test: compound was tested in vivo for DOPA accumulation in corpus striatum against reserpine-pretreated rats; I=inactive at the highest dose tested; assay type: functional, organism-based
# [27] = tmax in hours at a po dose of 20.0(pmol/g/h).; assay type: ADME, organism-based; details: in vivo
# Rattus norvegicus [28] = test: Bioavailability in male Sprague-Dawley rats, after the po administration at a dose of 20.0(pmol/g/h); assay type: ADME, organism-based; details: in vivo
# Rattus norvegicus [29] = test: Oral bioavailability in rat
# [30] = tmax in hours at a iv dose of 1.0(pmol/g/h).; assay type: ADME, organism-based; details: in vivo
# Rattus norvegicus [31] = test: The compound was tested in vivo for DOPA accumulation in limbic system against reserpine-pretreated rats;I= inactive at the highest dose tested; assay type: functional, organism-based
# Rattus norvegicus [32] = test: Bioavailability in male Sprague-Dawley rats, after the iv administration at a dose of 1.0(pmol/g/h); assay type: ADME, organism-based; details: in vivo
SMILES,Ki (D(3) dopamine receptor [1]) [nM],Ki [2] [nM],Ki [3] [nM],Ki (D(2) dopamine receptor [7]) [nM],Ki [10] [nM],Ki (D(2) dopamine receptor [17]) [nM],ED50 (Rattus norvegicus [18]) [µmol/kg],ED50 (Rattus norvegicus [21]),other results
CCCN(CCC)C1CCc2ccc3[nH]cc(C(=O)C(F)(F)F)c3c2C1 (stereo not drawn),675,20,279,544,112,–,–,–,ED50 (Rattus norvegicus [4]): inactive; ED50 (Rattus norvegicus [5]): 6.5 µmol/kg; ED50 (Rattus norvegicus [6]): 16.3 µmol/kg; ED50 (Rattus norvegicus [8]): 12.6 µmol/kg; ED50 (Rattus norvegicus [9]): 12.6 µmol/kg; ED50 (Rattus norvegicus [11]): 20.8 µmol/kg
CCCN(CCC)C1CCc2cc(F)c3[nH]cc(C=O)c3c2C1 (stereo not drawn),–,0.5,82,–,4.6,65,0.042,–,Ki (D(3) dopamine receptor [12]): 65 nM; ED50 (Rattus norvegicus [13]): 0.027 µmol/kg; ED50 (Rattus norvegicus [14]): Weak activity; ED50 (Rattus norvegicus [15]): inactive; ED50 (Rattus norvegicus [16]): 0.079 µmol/kg
CCCN(CCC)[C@@H]1CCc2cc(F)c3[nH]cc(C=O)c3c2C1,55,0.3,–,48,4.4,–,0.083,inactive,ED50 (Rattus norvegicus [19]): 0.084 µmol/kg; ED50 (Rattus norvegicus [20]): 0.078 µmol/kg
CCCN(CCC)[C@H]1CCc2cc(F)c3[nH]cc(C=O)c3c2C1,78,0.8,179,199,34,–,–,inactive,ED50 (Rattus norvegicus [22]): 0.23 µmol/kg; ED50 (Rattus norvegicus [23]): 0.32 µmol/kg; ED50 (Rattus norvegicus [24]): 0.17 µmol/kg
CCCN(CCC)C1CCc2ccc3[nH]cc(S(C)(=O)=O)c3c2C1 (stereo not drawn),–,11,373,–,52,265,–,–,Ki (D(3) dopamine receptor [25]): Not Active
CCCN(CCC)C1CCc2cccc(O)c2C1 (stereo not drawn) [8-OH-DPAT],333,–,–,1130,–,–,–,inactive,ED50 (Rattus norvegicus [26]): inactive; Tmax [27]: 29 min; AUC (Rattus norvegicus [28]): 104 pM ml-1; F (Rattus norvegicus [29]): 2.4%; Tmax [30]: 3 min; ED50 (Rattus norvegicus [31]): inactive; AUC (Rattus norvegicus [32]): 213 pM ml-1
